Results as given in patent US10808007B2, “Desacetoxytubulysin H and analogs thereof” (WILLIAM MARSH RICE UNIVERSITY, priority 2015, dated 2020).
Where two headings read alike, the source gives them in different places.

Assays:
Type in all cases: cell-based
[1] = tested on: MES SA (uterine sarcoma cells); assay: Cytotoxic assay (CellTiter-Glo, 72 h), MES SA
[2] = tested on: MES SA DX (multidrug resistant uterine sarcoma cells); assay: Cytotoxic assay (CellTiter-Glo, 72 h), MES SA DX; conditions: Homo sapiens
[3] = tested on: HEK 293T (human embryonic kidney cells); assay: Cytotoxic assay (CellTiter-Glo, 72 h), HEK 293T
[4] = Homo sapiens, MES-SA, 72 h, read-out: IC50 MES SA
[5] = Homo sapiens, HEK-293T, 72 h, read-out: IC50 HEK 293T
[6] = Homo sapiens, MES-SA, read-out: MES SA IC50 (nM)
[7] = Homo sapiens, HEK-293T, read-out: HEK 293T IC50 (nM)

SMILES	IC50 [1, 4]	IC50 [2]	IC50 [3, 5]	IC50 [1, 6]	IC50 [3, 7]	further results
CC[C@H](C)[C@H](NC(=O)[C@H]1CCCCN1C)C(=O)N(C)[C@H](CCc1nc(C(=O)N[C@@H](Cc2ccccc2)C[C@H](C)C(=O)OC)cs1)C(C)C [PTb-D42, Methyl(2S,4R)-4-(2-((R)-3-((2S,3S)—N,3-dimethyl-2-((R)-1-methylpiperidine-2-carboxamido)pentanamido)-4-methylpentyl)thiazole-4-carboxamido)-2-methyl-5-phenylpentanoate]	> 1000 nM	> 1000 nM	> 1000 nM	–	–	–
CC[C@H](C)[C@H](NC(=O)[C@H]1CCCCN1C)C(=O)N(C)[C@H](CCc1nc(C(=O)N[C@@H](Cc2ccccc2)C[C@H](C)C(=O)O)cs1)C(C)C [PTb-D43, pretubulysin D, reference compound]	409 nM	> 1000 nM	109 nM	–	–	–
CCCCN1CCCC[C@@H]1C(=O)N[C@H](C(=O)N(C)[C@H](CCc1nc(C(=O)N[C@@H](Cc2ccccc2)C[C@H](C)C(=O)OC)cs1)C(C)C)[C@@H](C)CC [PTb-D49, Methyl(2S,4R)-4-(2-((R)-3-((2S,3S)-2-((R)-1-butylpiperidine-2-carboxamido)-N,3-dimethylpentanamido)-4-methylpentyl)thiazole-4-carboxamido)-2-methyl-5-phenylpentanoate]	–	–	–	> 100 nM	> 100 nM	–
COC(=O)[C@@H](C)C[C@H](Cc1ccccc1)NC(=O)c1csc(CC[C@H](C(C)C)N(C)C(=O)[C@@H](NC(=O)[C@H]2CCCCN2C)C(C)C)n1 [PTb-D50, Methyl(2S,4R)-4-(2-((R)-3-((S)—N,3-dimethyl-2-((R)-1-methylpiperidine-2-carboxamido)butanamido)-4-methylpentyl)thiazole-4-carboxamido)-2-methyl-5-phenylpentanoate]	–	–	–	> 100 nM	> 100 nM	–
CCCCN1CCCC[C@@H]1C(=O)N[C@H](C(=O)N(C)[C@H](CCc1nc(C(=O)N[C@@H](Cc2ccccc2)C[C@H](C)C(=O)OC)cs1)C(C)C)C(C)C [PTb-D51, Methyl(2S,4R)-4-(2-((R)-3-((S)-2-((R)-1-butylpiperidine-2-carboxamido)-N,3-dimethylbutanamido)-4-methylpentyl)thiazole-4-carboxamido)-2-methyl-5-phenylpentanoate]	–	–	–	> 100 nM	> 100 nM	–
CC[C@H](C)[C@H](NC(=O)[C@H]1CCCCN1C)C(=O)N(C)[C@H](C[C@@H](OC(C)=O)c1nc(C(=O)NC23C4C5C2C2C3C4C52C(=O)OC)cs1)C(C)C (stereo partly drawn) [Tb1l]	–	–	–	–	–	IC50 ([1]; MES SA, read-out: IC50 MES SA): 0.84 nM; IC50 ([3]; HEK 293T, read-out: IC50 HEK 293T): 0.26 nM
COC(=O)[C@H](Cc1ccccc1)NC(=O)c1csc([C@@H](C[C@H](C(C)C)N(C)C(=O)[C@@H](NC(=O)[C@H]2CCCCN2C)C2CC2)OC(C)=O)n1 [Tb24, Methyl(2-((1R,3R)-1-acetoxy-3-((S)-2-cyclopropyl-N-methyl-2-((R)-1-methylpiperidine-2-carboxam-ido)acetamido)-4-methylpentyl)thiazole-4-carbonyl)-L-phenylalaninate]	13.1 nM	> 100 nM	9.69 nM	–	–	–
COC(=O)[C@@H](C)C[C@H](Cc1ccccc1)NC(=O)c1csc([C@@H](C[C@H](C(C)C)N(C)C(=O)[C@@H](NC(=O)[C@H]2CCCN2C)C2CC2)OC(C)=O)n1 [Tb26, (2S,4R)-Methyl 4-(2-((1R,3R)-1-acetoxy-3-((S)-2-cyclopropyl-N-methyl-2-((R)-1-methylpyrrolidine-2-carboxamido)acetamido)-4-methylpentyl)thiazole-4-carboxamido)-2methyl-5-phenylpentanoate]	0.2 nM	> 100 nM	0.12 nM	–	–	IC50 ([1]; Homo sapiens, MES-SA, read-out: IC50 MES SA): 0.2 nM; IC50 ([3]; Homo sapiens, HEK-293T, read-out: IC50 HEK 293T): 0.12 nM
COC(=O)[C@@H](C)C[C@H](Cc1ccccc1)NC(=O)c1csc([C@@H](C[C@H](C(C)C)N(C)C(=O)C2(NC(=O)[C@H]3CCCCN3C)CC2)OC(C)=O)n1 [Tb27, (2S,4R)-Methyl 4-(2-((1R,3R)-1-acetoxy-4-methyl-3-(N-methyl-1-((R)-1-methylpiperidine-2-carboxamido)cyclopropanecarboxamido)pentyl)thiazole-4-carboxamido)-2-methyl-5-phenylpentanoate]	2.46 nM	> 100 nM	1.96 nM	–	–	–
COC(=O)[C@@H](C)C[C@H](Cc1ccccc1)NC(=O)c1csc([C@@H](C[C@H](C(C)C)N(C)C(=O)C2(NC(=O)[C@H]3CCCCN3C)CCC2)OC(C)=O)n1 [Tb28, (2S,4R)-Methyl 4-(2-((1R,3R)-1-acetoxy-4-methyl-3-(N-methyl-1-((R)-1-methylpiperidine-2-carboxamido)cyclobutanecarboxamido)pentyl)thiazole-4-carboxamido)-2-methyl-5-phenylpentanoate]	1.13 nM	81.7 nM	0.69 nM	–	–	–
COC(=O)[C@@H](C)C[C@H](Cc1ccccc1)NC(=O)c1csc([C@@H](C[C@H](C(C)C)N(C)C(=O)C2(NC(=O)[C@H]3CCCCN3C)CCCC2)OC(C)=O)n1 [Tb-52, Methyl (2S,4R)-4-(2-((1R,3R)-1-acetoxy-4-methyl-3-(N-methyl-1-((R)-1-methylpiperidine-2-carboxa-mido)cyclopentane-1-carboxamido)pentyl)thiazole-4-carboxamido)-2-methyl-5-phenylpentanoate]	–	–	–	7.18 nM	5.78 nM	–
CC[C@H](C)[C@H](NC(=O)[C@H]1CCCCN1C)C(=O)N[C@H](C[C@@H](OC(C)=O)c1nc(C(=O)N[C@@H](Cc2ccccc2)C[C@H](C)C(=O)OC)cs1)C(C)C [Tb-53, (2S,4R)-Methyl 4-(2-((1R,3R)-1-acetoxy-4-methyl-3-((2S,3S)-3-methyl-2-((R)-1-methylpiperidine-2-carboxamido)pentanamido)pentyl)thiazole-4-carboxamido)-2-methyl-5-phenyl pentanoate]	–	–	–	0.92 nM	0.56 nM	–
CC[C@H](C)[C@H](NC(=O)[C@H]1CCCCN1C)C(=O)N[C@H](C[C@@H](OC(C)=O)c1nc(C(=O)N[C@@H](Cc2ccccc2)C[C@H](C)C(=O)O)cs1)C(C)C [Tb-54, (2S,4R)-4-(2-((1R,3R)-1-Acetoxy-4-methyl-3-((2S,3S)-3-methyl-2-((R)-1-methylpiperidine-2-carboxamido)pentanamido)pentyl)thiazole-4-carboxamido)-2-methyl-5-phenylpentanoic Acid]	–	–	–	–	–	IC50 ([1]; Homo sapiens, MES SA, Table 3, read-out: MES SA IC50): 6.21 nM; IC50 ([3]; Homo sapiens, HEK 293T, Table 3, read-out: HEK 293T IC50): 0.73 nM
COC(=O)C12CC(NC(=O)c3csc([C@@H](C[C@H](C(C)C)N(C)C(=O)[C@@H](NC(=O)[C@H]4CCCCN4C)C(C)C)OC(C)=O)n3)(C1)C2 [Tb-55, Methyl 3-(2-((1R,3R)-1-acetoxy-3-((S)—N,3-dimethyl-2-((R)-1-methylpiperidine-2-carboxamido)butanamido)-4-methylpentyl)thiazole-4-carboxamido)bicyclo[1.1.1]pentane-1-carboxylate]	–	–	–	0.93 nM	0.35 nM	–
COC(=O)CC12CC(NC(=O)c3csc([C@@H](C[C@H](C(C)C)N(C)C(=O)[C@@H](NC(=O)[C@H]4CCCCN4C)C(C)C)OC(C)=O)n3)(C1)C2 [Tb-56, Methyl 2-(3-(2-((1R,3R)-1-acetoxy-3-((S)—N,3-dimethyl-2-((R)-1-methylpiperidine-2-carboxamido)butanamido)-4-methylpentyl)thiazole-4-carboxamido)bicyclo[1.1.1]pentan-1-yl)]	–	–	–	~2.73 nM	1.79 nM	–
COC(=O)[C@@H](C)C[C@H](Cc1ccc(F)cc1)NC(=O)c1csc([C@@H](C[C@H](C(C)C)N(C)C(=O)[C@@H](NC(=O)[C@H]2CCCCN2C)C2CC2)OC(C)=O)n1 [Tb-57, Methyl (2S,4R)-4-(2-((1R,3R)-1-acetoxy-3-((S)-2-cyclopropyl-N-methyl-2-((R)-1-methylpiperidine-2-carboxamido)acetamido)-4-methylpentyl)thiazole-4-carboxamido)-5-(4-fluorophenyl)-2-methylpentanoate]	–	–	–	~89.3 nM	~105 nM	–
COC(=O)[C@H]1CC[C@H](NC(=O)c2csc([C@@H](C[C@H](C(C)C)N(C)C(=O)[C@@H](NC(=O)[C@H]3CCCCN3C)C(C)C)OC(C)=O)n2)CC1 [Tb-58, Methyl (1R,4r)-4-(2-((1R,3R)-1-acetoxy-3-((S)—N,3-dimethyl-2-((R)-1-methylpiperidine-2-carboxamido)butanamido)-4-methylpentyl)thiazole-4-carboxamido)cyclohexane-1-carboxylate]	–	–	–	6.16 nM	3.83 nM	–
CC(=O)O[C@H](C[C@H](C(C)C)N(C)C(=O)[C@@H](NC(=O)[C@H]1CCCCN1C)C(C)C)c1nc(C(=O)N[C@H]2CC[C@H](C(=O)O)CC2)cs1 [Tb-59, (1R,4r)-4-(2-((1R,3R)-1-Acetoxy-3-((S)—N,3-dimethyl-2-((R)-1-methylpiperidine-2-carboxamido)butanamido)-4-methylpentyl)thiazole-4-carboxamido)cyclohexane-1-carboxylic Acid]	–	–	–	> 100 nM	> 100 nM	–
CCCCN1CCCC[C@@H]1C(=O)N[C@H](C(=O)N(C)[C@H](C[C@@H](OC(C)=O)c1nc(C(=O)N[C@H]2CC[C@H](C(=O)OC)CC2)cs1)C(C)C)C(C)C [Tb-60, Methyl (1R,4r)-4-(2-((1R,3R)-1-acetoxy-3-((S)-2-((R)-1-butylpiperidine-2-carboxamido)-N,3-dimethylbutanamido)-4-methylpentyl)thiazole-4-carboxamido)cyclohexane-1-carboxylate]	–	–	–	> 100 nM	> 100 nM	–
CCCCN1CCCC[C@@H]1C(=O)N[C@H](C(=O)N(C)[C@H](C[C@@H](OC(C)=O)c1nc(C(=O)N[C@H]2CC[C@H](C(=O)O)CC2)cs1)C(C)C)C(C)C [Tb-61]	–	–	–	> 100 nM	> 100 nM	–
